Test results reported in US9693556B2, “Herbicidal pyridazinone derivatives” (SYNGENTA LIMITED, priority 2011, dated 2017).

Key:
Assay type in all cases: in vivo
Solanum nigrum (SOLNI) [1] = test: Post-emergence herbicidal glasshouse test on Solanum nigrum; details: post-emergence; 1000 g/h; evaluated after 13 days
How it was run: (§1)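 Pre-emergence treatment came one day after sowing, post-emergence treatment after eight days' growth; both used 1000 g/h in a 0.5% Tween 20 acetone/water vehicle. Percent damage, scored 1–5, was read 13 days later.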

[2] = system: Ipomoea hederacea (IPOHE); test: Post-emergence herbicidal glasshouse test on Ipomoea hederacea; details: post-emergence; 1000 g/h; evaluated after 13 days
How it was run: as §1

[3] = system: Echinochloa crus-galli (ECHCG); test: Pre-emergence herbicidal glasshouse test on Echinochloa crus-galli; details: pre-emergence; 1000 g/h; evaluated after 13 days
How it was run: as §1

[4] = system: Echinochloa crus-galli (ECHCG); test: Post-emergence herbicidal glasshouse test on Echinochloa crus-galli; details: post-emergence; 1000 g/h; evaluated after 13 days
How it was run: as §1

[5] = system: Amaranthus retoflexus (AMARE); test: Pre-emergence herbicidal glasshouse test on Amaranthus retoflexus; details: pre-emergence; 1000 g/h; evaluated after 13 days
How it was run: as §1

Setaria faberi (SETFA) [6] = test: Pre-emergence herbicidal glasshouse test on Setaria faberi; details: pre-emergence; 1000 g/h; evaluated after 13 days
How it was run: as §1

[7] = system: Amaranthus retoflexus (AMARE); test: Post-emergence herbicidal glasshouse test on Amaranthus retoflexus; details: post-emergence; 1000 g/h; evaluated after 13 days
How it was run: as §1

[8] = system: Ipomoea hederacea (IPOHE); test: Pre-emergence herbicidal glasshouse test on Ipomoea hederacea; details: pre-emergence; 1000 g/h; evaluated after 13 days
How it was run: as §1

Setaria faberi (SETFA) [9] = test: Post-emergence herbicidal glasshouse test on Setaria faberi; details: post-emergence; 1000 g/h; evaluated after 13 days
How it was run: as §1

[10] = system: Alopecurus myosuroides (ALOMY); test: Pre-emergence herbicidal glasshouse test on Alopecurus myosuroides; details: pre-emergence; 1000 g/h; evaluated after 13 days
How it was run: as §1

[11] = system: Alopecurus myosuroides (ALOMY); test: Post-emergence herbicidal glasshouse test on Alopecurus myosuroides; details: post-emergence; 1000 g/h; evaluated after 13 days
How it was run: as §1

Solanum nigrum (SOLNI) [12] = test: Pre-emergence herbicidal glasshouse test on Solanum nigrum; details: pre-emergence; 1000 g/h; evaluated after 13 days
How it was run: as §1

Row | SMILES | POST Application SOLNI herbicidal damage (five point scale) (Solanum nigrum (SOLNI) [1]) | POST Application IPOHE herbicidal damage (five point scale) [2] | PRE Application ECHCG herbicidal damage (five point scale) [3] | POST Application ECHCG herbicidal damage (five point scale) [4] | PRE Application AMARE herbicidal damage (five point scale) [5] | PRE Application SETFA herbicidal damage (five point scale) (Setaria faberi (SETFA) [6]) | POST Application AMARE herbicidal damage (five point scale) [7] | PRE Application IPOHE herbicidal damage (five point scale) [8] | POST Application SETFA herbicidal damage (five point scale) (Setaria faberi (SETFA) [9]) | PRE Application ALOMY herbicidal damage (five point scale) [10] | POST Application ALOMY herbicidal damage (five point scale) [11] | PRE Application SOLNI herbicidal damage (five point scale) (Solanum nigrum (SOLNI) [12])
1 | Cc1c(Cl)ccc(-c2cnn(C)c(=O)c2O)c1F [Compound 1.045] | 4 (4=60-79% damage) | 1 (1=0-19% damage) | 1 (1=0-19% damage) | 1 (1=0-19% damage) | 1 (1=0-19% damage) | 1 (1=0-19% damage) | 2 (2=20-39% damage) | 1 (1=0-19% damage) | 1 (1=0-19% damage) | 1 (1=0-19% damage) | 1 (1=0-19% damage) | 1 (1=0-19% damage)
2 | Cn1ncc(-c2ccc(F)cc2S(C)(=O)=O)c(O)c1=O [Compound 1.058] | 5 (5=80-100% damage) | 5 (5=80-100% damage) | 5 (5=80-100% damage) | 5 (5=80-100% damage) | 5 (5=80-100% damage) | 5 (5=80-100% damage) | 5 (5=80-100% damage) | 5 (5=80-100% damage) | 5 (5=80-100% damage) | 5 (5=80-100% damage) | 5 (5=80-100% damage) | 5 (5=80-100% damage)
3 | CCn1ncc(-c2cc3cccnc3nc2C(F)(F)F)c(O)c1=O [Compound 5.001] | 5 (5=80-100% damage) | 5 (5=80-100% damage) | 5 (5=80-100% damage) | 5 (5=80-100% damage) | 5 (5=80-100% damage) | 5 (5=80-100% damage) | 5 (5=80-100% damage) | 5 (5=80-100% damage) | 5 (5=80-100% damage) | 5 (5=80-100% damage) | 5 (5=80-100% damage) | 5 (5=80-100% damage)
4 | Cc1c(Cl)cccc1-c1c(C(F)(F)F)ccn(-c2cnn(C)c(=O)c2O)c1=O [Compound 7.030] | 5 (5=80-100% damage) | 5 (5=80-100% damage) | 5 (5=80-100% damage) | 5 (5=80-100% damage) | 5 (5=80-100% damage) | 4 (4=60-79% damage) | 5 (5=80-100% damage) | 4 (4=60-79% damage) | 5 (5=80-100% damage) | 5 (5=80-100% damage) | 5 (5=80-100% damage) | 5 (5=80-100% damage)
5 | Cn1ncc(-n2ccc(-c3ccc(C(F)(F)F)cc3)cc2=O)c(O)c1=O [Compound 1.023] | 2 (2=20-39% damage) | 1 (1=0-19% damage) | 1 (1=0-19% damage) | 1 (1=0-19% damage) | 5 (5=80-100% damage) | 4 (4=60-79% damage) | 3 (3=40-59% damage) | 1 (1=0-19% damage) | 4 (4=60-79% damage) | 2 (2=20-39% damage) | 2 (2=20-39% damage) | 1 (1=0-19% damage)
6 | Cn1ncc(-c2cc3cccnc3nc2C(F)(F)F)c(O)c1=O [Compound 1.039] | 5 (5=80-100% damage) | 5 (5=80-100% damage) | 5 (5=80-100% damage) | 5 (5=80-100% damage) | 5 (5=80-100% damage) | 3 (3=40-59% damage) | 5 (5=80-100% damage) | 5 (5=80-100% damage) | 5 (5=80-100% damage) | 2 (2=20-39% damage) | 4 (4=60-79% damage) | 4 (4=60-79% damage)
7 | Cn1ncc(-n2ccc(C(F)(F)F)c(-c3ccc(C(F)(F)F)nc3)c2=O)c(O)c1=O [Compound 7.010] | 5 (5=80-100% damage) | 5 (5=80-100% damage) | 5 (5=80-100% damage) | 5 (5=80-100% damage) | 5 (5=80-100% damage) | 5 (5=80-100% damage) | 5 (5=80-100% damage) | 5 (5=80-100% damage) | 5 (5=80-100% damage) | 5 (5=80-100% damage) | 5 (5=80-100% damage) | 5 (5=80-100% damage)
8 | CC(C)(C)n1ncc(-c2c(Cl)cccc2Cl)c(O)c1=O [Compound 1.133] | 2 (2=20-39% damage) | 2 (2=20-39% damage) | 1 (1=0-19% damage) | 3 (3=40-59% damage) | 1 (1=0-19% damage) | 1 (1=0-19% damage) | 1 (1=0-19% damage) | 1 (1=0-19% damage) | 1 (1=0-19% damage) | 1 (1=0-19% damage) | 1 (1=0-19% damage) | 1 (1=0-19% damage)
9 | Cn1ncc(-c2ccc(Cl)cc2[N+](=O)[O-])c(O)c1=O [Compound 1.109] | 4 (4=60-79% damage) | 4 (4=60-79% damage) | 1 (1=0-19% damage) | 2 (2=20-39% damage) | 5 (5=80-100% damage) | 1 (1=0-19% damage) | 5 (5=80-100% damage) | 1 (1=0-19% damage) | 1 (1=0-19% damage) | 1 (1=0-19% damage) | 1 (1=0-19% damage) | 2 (2=20-39% damage)
